Laboratory results: patent publication US8404677B2, “Kinase inhibitors” (Genosco, priority 2009, dated 2013)
Structures can show the parent of a compound that is named as a salt. Values belong to the compound of their own block, whether it stands above or below them.

Tests used:
truncated human JAK2 = molecular target: T1, truncated human JAK2 (Homo sapiens, UniProt O60674); assay: Inhibition of enzymatic kinase activity (LANCE Ulight); format: biochemical
T1 construct: truncated human FAK, RET, FLT3, JAK2, and LRRK2 (CARNA BIOSCIENCES™); purchased Carna Biosciences
Protocol: (§1) Inhibition of Enzymatic SYK, ZAP70, PYK2, FAK, PIM1, RET, FLT3, JAK2 and LRRK2 Kinase Activity
(§2) Compounds of the invention were initially diluted to 10 mM in 100% DMSO (CALBIOCHEM™) for storage and made into kinase buffer solution to create a compound concentration ranging from 1 uM and 10 uM. Serial dilutions of compounds of the invention were dispensed into a 96-well plate (GREINER BIOSCIENCES™) at 6 μL each. Purified full-length human SYK, ZAP70, PIM1, PYK2 and truncated human FAK, RET, FLT3, JAK2, and LRRK2 (CARNA BIOSCIENCES™) were diluted in kinase buffer and added to the compound solutions and pre-incubated for 30 minutes at room temperature (1 hour for PYK2). […] The reaction mixture was incubated for 1 hour (2 hours for PYK2). Following the incubation, the stop solution made with EDTA, water, and Lance detection buffer ([…]™) was added (12 μL each) to stop phosphorylation.

truncated human RET = molecular target: T2, truncated human RET (Homo sapiens, UniProt P07949); assay: as above; format: biochemical
T2 construct: truncated human FAK, RET, FLT3, JAK2, and LRRK2 (CARNA BIOSCIENCES™); purchased Carna Biosciences
T2 sequence (P07949 658-1114 limits assumed): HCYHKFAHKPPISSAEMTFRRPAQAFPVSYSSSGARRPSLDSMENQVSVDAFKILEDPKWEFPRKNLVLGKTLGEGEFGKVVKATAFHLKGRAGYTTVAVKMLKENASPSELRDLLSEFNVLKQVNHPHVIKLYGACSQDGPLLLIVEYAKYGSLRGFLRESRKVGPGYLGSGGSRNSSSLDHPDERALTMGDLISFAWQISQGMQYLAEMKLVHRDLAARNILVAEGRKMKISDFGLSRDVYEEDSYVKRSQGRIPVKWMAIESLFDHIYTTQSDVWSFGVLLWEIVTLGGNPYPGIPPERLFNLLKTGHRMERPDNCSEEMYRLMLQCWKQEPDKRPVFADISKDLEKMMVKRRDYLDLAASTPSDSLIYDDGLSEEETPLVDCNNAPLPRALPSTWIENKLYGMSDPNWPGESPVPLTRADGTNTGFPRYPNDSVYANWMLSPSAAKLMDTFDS
Protocol: as §1, §2

truncated human FLT3 = molecular target: T3, truncated human FLT3 (Homo sapiens, UniProt P36888); assay: as above; format: biochemical
T3 construct: truncated human FAK, RET, FLT3, JAK2, and LRRK2 (CARNA BIOSCIENCES™); purchased Carna Biosciences
T3 sequence (P36888 564-993 limits assumed): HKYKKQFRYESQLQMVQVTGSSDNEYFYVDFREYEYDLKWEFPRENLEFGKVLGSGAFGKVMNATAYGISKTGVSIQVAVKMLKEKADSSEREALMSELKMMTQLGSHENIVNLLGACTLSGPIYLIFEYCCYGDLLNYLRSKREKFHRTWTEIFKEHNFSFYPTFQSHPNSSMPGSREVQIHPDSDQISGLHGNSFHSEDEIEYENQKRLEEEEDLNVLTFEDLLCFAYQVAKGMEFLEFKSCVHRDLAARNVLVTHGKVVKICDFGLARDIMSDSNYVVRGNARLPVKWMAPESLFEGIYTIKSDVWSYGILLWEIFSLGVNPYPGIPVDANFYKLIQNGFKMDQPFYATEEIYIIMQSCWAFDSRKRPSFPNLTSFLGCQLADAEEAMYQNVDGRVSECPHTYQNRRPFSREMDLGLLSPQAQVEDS
Protocol: as §1, §2

truncated human FAK = molecular target: T4, truncated human FAK (Homo sapiens, UniProt Q05397); assay: as above; format: biochemical; conditions: for inhibition at 1 µM: at 1 μM concentration, read-out: FAK percentage inhibition; for IC50: read-out: FAK molar inhibition (IC50)
T4 construct: truncated human FAK, RET, FLT3, JAK2, and LRRK2 (CARNA BIOSCIENCES™); purchased Carna Biosciences
Protocol: as §1, §2

human ZAP70 = molecular target: T5, human ZAP70 (Homo sapiens, UniProt P43403); assay: as above; format: biochemical; conditions: at 1 μM concentration; read-out: ZAP70 percentage inhibition
T5 construct: Purified full-length human SYK, ZAP70, PIM1, PYK2; purchased Carna Biosciences
T5 sequence (P43403 1-619): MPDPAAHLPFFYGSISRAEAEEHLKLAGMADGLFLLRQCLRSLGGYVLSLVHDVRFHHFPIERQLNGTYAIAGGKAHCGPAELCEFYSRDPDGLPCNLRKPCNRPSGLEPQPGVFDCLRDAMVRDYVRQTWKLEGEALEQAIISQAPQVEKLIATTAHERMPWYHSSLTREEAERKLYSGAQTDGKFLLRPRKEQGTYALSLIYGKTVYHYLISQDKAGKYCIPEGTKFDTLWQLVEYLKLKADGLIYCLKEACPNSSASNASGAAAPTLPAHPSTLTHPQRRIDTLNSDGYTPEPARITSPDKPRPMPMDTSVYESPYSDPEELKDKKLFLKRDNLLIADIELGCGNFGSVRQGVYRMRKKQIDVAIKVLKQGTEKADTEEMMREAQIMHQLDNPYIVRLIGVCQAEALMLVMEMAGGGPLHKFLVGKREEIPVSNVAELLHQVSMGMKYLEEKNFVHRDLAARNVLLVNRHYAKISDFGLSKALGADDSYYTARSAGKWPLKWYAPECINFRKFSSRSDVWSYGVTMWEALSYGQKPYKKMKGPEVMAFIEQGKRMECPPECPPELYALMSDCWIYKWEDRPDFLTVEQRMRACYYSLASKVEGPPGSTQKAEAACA
Protocol: as §1, §2

SYK = SYK (Homo sapiens, UniProt P43405); assay: as above; format: biochemical; parameters: Purified full-length human SYK, ZAP70, PIM1, PYK2; purchased Carna Biosciences; conditions: for inhibition at 1 µM: at 1 μM concentration, read-out: SYK percentage inhibition; for IC50: read-out: SYK molar inhibition (IC50)
Protocol: as §1, §2

PYK2 = PYK2 (Homo sapiens, UniProt Q14289); assay: as above; format: biochemical; parameters: Purified full-length human SYK, ZAP70, PIM1, PYK2; purchased Carna Biosciences; conditions: for inhibition at 1 µM: at 1 μM concentration, read-out: PYK2 percentage inhibition; for IC50: read-out: PYK2 molar inhibition (IC50)
Protocol: as §1, §2

human PIM1 = molecular target: T6, human PIM1 (Homo sapiens, UniProt P11309); assay: as above; format: biochemical; conditions: at 1 μM concentration; read-out: PIM1 percentage inhibition
T6 construct: Purified full-length human SYK, ZAP70, PIM1, PYK2; purchased Carna Biosciences
Protocol: as §1
as §2, with “phosphorylation. […] Substrate phosphorylation was a function of the 665 nm emission measured following the addition of the detection solution and 50 minutes of incubation.” for “phosphorylation.”

[1] = test system: TNF-α release in THP-1 cells, IgG stimulation; assay: SYK dependent TNF-α release assay (IgG stimulation); format: cell-based, human; conditions: for percentage inhibition of TNF-α release compared with R406: IgG stimulated release, 0.3 μM
Protocol: Compounds of the invention were tested for their TNF-α release effect on THP-1 cells. For SYK dependent TNF-α release assay (i.e., via IgG stimulation), THP-1 cells derived from human monocytic cells were obtained from the American Type Culture Collection (ATCC, Manassas, Va.). This cell line was maintained with an Roswell Park Memorial Institute (RPMI) medium (GIBCO™) containing 10 fetal bovine serum (FBS; GIBCO™) and 0.05 mM 2-mercaptoethanol. The THP-1 cells were seeded at 1×10^5 cells/100 μL/well into human IgG ([…], INVITROGEN™)-coated 96 well culture plate, and serially diluted compound was then added. After an 18-hour incubation period at 37° C., supernatants were collected for the determination of the TNF-α level by enzyme-linked immunosorbent assay (ELISA), and the remaining cells were subjected to an MTT (yellow tetrazolium salt) assay to determine the cytotoxic effects of compound.

T4 sequence (Q05397 376-1052 limits assumed): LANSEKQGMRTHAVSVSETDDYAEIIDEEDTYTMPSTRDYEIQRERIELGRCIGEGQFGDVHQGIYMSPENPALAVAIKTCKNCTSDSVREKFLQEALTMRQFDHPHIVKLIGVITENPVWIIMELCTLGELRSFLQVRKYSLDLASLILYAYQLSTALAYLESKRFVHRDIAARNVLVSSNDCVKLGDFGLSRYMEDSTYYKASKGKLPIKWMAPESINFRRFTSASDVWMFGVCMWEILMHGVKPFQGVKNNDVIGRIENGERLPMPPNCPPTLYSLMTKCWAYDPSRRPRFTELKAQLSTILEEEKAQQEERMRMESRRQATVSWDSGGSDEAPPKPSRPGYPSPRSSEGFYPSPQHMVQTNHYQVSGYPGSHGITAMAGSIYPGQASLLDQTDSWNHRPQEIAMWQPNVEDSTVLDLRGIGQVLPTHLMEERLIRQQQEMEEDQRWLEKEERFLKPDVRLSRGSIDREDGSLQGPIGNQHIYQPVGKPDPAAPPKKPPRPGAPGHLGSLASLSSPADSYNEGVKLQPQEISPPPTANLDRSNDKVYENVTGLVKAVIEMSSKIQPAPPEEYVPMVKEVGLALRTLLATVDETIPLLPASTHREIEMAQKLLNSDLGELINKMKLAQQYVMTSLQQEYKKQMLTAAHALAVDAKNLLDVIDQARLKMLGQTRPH
T1 sequence (O60674 826-1132 limits assumed): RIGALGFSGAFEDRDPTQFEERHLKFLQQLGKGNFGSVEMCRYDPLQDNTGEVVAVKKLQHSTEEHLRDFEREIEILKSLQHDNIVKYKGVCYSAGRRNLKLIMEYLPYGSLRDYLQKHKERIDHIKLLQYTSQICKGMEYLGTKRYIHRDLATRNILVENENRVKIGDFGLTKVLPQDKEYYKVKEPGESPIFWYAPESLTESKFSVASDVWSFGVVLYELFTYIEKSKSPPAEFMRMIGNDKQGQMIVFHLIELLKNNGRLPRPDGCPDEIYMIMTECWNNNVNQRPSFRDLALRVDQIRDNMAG
Sequence of PYK2 (Q14289 whole entry): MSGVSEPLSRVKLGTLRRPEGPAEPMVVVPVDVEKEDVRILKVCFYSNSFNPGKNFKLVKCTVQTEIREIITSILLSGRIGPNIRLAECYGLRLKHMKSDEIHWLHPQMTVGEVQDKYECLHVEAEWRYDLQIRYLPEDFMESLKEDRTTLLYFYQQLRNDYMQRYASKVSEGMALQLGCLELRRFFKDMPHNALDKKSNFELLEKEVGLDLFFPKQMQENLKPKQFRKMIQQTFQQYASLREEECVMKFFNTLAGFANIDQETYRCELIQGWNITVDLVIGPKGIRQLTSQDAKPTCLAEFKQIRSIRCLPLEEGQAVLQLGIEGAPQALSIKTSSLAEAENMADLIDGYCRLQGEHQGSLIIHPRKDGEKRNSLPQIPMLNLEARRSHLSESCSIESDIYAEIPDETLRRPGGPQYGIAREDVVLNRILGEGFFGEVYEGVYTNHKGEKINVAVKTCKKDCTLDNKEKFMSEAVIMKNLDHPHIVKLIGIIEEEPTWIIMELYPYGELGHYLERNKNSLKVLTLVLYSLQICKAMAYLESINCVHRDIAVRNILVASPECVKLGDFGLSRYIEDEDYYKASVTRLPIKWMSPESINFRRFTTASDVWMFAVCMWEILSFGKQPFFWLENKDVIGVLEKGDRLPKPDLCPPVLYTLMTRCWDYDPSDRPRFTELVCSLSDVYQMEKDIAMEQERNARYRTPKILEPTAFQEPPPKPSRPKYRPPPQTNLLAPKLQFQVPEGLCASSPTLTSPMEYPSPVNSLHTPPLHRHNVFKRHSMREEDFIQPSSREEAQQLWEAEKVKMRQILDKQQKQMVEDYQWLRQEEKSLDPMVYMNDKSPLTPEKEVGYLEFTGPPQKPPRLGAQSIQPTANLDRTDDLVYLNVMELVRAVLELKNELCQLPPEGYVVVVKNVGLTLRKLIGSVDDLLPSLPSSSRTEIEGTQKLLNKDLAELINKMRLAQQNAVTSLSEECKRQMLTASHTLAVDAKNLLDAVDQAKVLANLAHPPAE
T6 sequence (P11309 whole entry): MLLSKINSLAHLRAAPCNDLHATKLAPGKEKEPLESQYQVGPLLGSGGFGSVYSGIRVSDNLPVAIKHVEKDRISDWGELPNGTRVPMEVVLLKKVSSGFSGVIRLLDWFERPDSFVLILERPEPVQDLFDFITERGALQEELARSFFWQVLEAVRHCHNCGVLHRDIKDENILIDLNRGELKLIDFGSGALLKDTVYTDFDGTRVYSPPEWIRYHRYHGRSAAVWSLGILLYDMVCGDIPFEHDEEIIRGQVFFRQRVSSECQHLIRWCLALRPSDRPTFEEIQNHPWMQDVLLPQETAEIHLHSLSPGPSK

IC50 (truncated human JAK2): 59.4 nM | IC50 (truncated human RET): 200 nM | IC50 (truncated human FLT3): 242 nM
SMILES: COc1cc(Nc2nc(N3CCC(O)CC3)nc3cc[nH]c(=O)c23)cc(OC)c1 [Compound 1, 4-(3,5-dimethoxyphenylamino)-2-(4-hydroxypiperidin-1-yl)pyrido[4,3,-d]pyrimidin-6(6H)-one]

IC50 (truncated human JAK2): 73.8 nM | IC50 (truncated human RET): 363 nM | IC50 (truncated human FLT3): 368 nM
SMILES: COc1cc(Nc2nc(N3CCC(O)(CO)CC3)nc3cc[nH]c(=O)c23)cc(OC)c1 [Compound 2, 4-(3,5-dimethoxyphenylamino)-2-(4-hydroxy-4-(hydroxymethyl)piperidin-1-yl)pyrido[4,3d]pyrimidin-5(6H)-one]

inhibition at 1 µM (truncated human FAK): 83.5% | inhibition at 1 µM (human ZAP70): 42% | inhibition at 1 µM (SYK): 92.6% | inhibition at 1 µM (PYK2): 84.9% | inhibition at 1 µM (human PIM1): 51.4%
SMILES: N[C@@H]1CCN(c2nc(Nc3cccc(C(F)(F)F)c3)c3c(=O)[nH]ccc3n2)C1 [Compound 7, (R)-2-(3-aminopyrrolidin-1-yl)-4-(3-(trifluoromethyl)phenylamino)pyrido[4,3-d]pyrimidin-5(6H)-one hydrochloride]

inhibition at 1 µM (truncated human FAK): 83% | inhibition at 1 µM (human ZAP70): 32% | inhibition at 1 µM (SYK): 84% | inhibition at 1 µM (PYK2): 89% | inhibition at 1 µM (human PIM1): 64%
SMILES: NC1CCC(Nc2nc(Nc3cccc(C(F)(F)F)c3)c3c(=O)[nH]ccc3n2)CC1 [Compound 9, 2-((1R,4R)-4-aminocyclohexylamino)-4-(3-(trifluoromethyl)phenylamino)pyrido[4,3-d]pyrimidin-5(6H)-one]

inhibition at 1 µM (truncated human FAK): 21.9% | inhibition at 1 µM (human ZAP70): 9% | inhibition at 1 µM (SYK): 37.7% | inhibition at 1 µM (PYK2): 88.4%
SMILES: N[C@@H]1CCCC[C@H]1Nc1nc(Nc2cc(C(F)(F)F)cc(C(F)(F)F)c2)c2c(=O)[nH]ccc2n1 [Compound 100, 2-((1R,2R)-2-aminocyclohexylamino)-4-(3,5-bis(trifluoromethyl)phenylamino)pyrido[4,3-d]pyrimidin-5(6H)-one]

IC50 (truncated human JAK2): 24.9 nM | IC50 (truncated human RET): 3.4 nM | IC50 (truncated human FLT3): 0.6 nM
SMILES: O=c1[nH]ccc2nc(N[C@H]3CCNC3)nc(Nc3ccc(Oc4ccccc4)cc3)c12 [Compound 125, (S)-4-(phenoxyphenylamino)-2-(pyrrolidin-3-ylamino)pyrido[4,3-d]pyrimidin-5(6H)-one hydrochloride]

IC50 (truncated human JAK2): 3.7 nM | IC50 (truncated human RET): 7.3 nM
SMILES: O=c1[nH]ccc2nc(N3CCC(O)CC3)nc(Nc3ccc(N4CCOCC4)cc3)c12 [Compound 134, 2-(4-hydroxypiperidin-1-yl)-4-(4-morpholinophenylamino)pyrido[4,3-d]pyrimidin-5(6H)-one]

IC50 (truncated human JAK2): 151 nM | IC50 (truncated human RET): 32.7 nM | IC50 (truncated human FLT3): 151 nM
SMILES: COc1cc(Nc2nc(N3CCC(O)CC3)nc3cc[nH]c(=O)c23)cc(OC)c1OC [Compound 149, 2-(4-hydroxypiperidin-1-yl)-4-(3,4,5-triemethoxyphenylamino)pyrido[4,3d]pyrimidin-5(6H)-one]

IC50 (truncated human JAK2): 65.3 nM | IC50 (truncated human RET): 115 nM | IC50 (truncated human FLT3): 106 nM
SMILES: COc1ccc(Nc2nc(N3CCC(O)CC3)nc3cc[nH]c(=O)c23)cc1C(F)(F)F [Compound 150, 2-(4-hydroxypiperidin-1-yl)-4-(4-methoxy-3-(trifluoromethyl)phenylamino)pyrido[4,3d]pyrimidin-5(6H)-one]

IC50 (truncated human FAK): 217 nM | IC50 (SYK): 8.2 nM | IC50 (PYK2): 90.2 nM
SMILES: COc1ccc(Nc2nc(N3CCC(CO)CC3)nc3cc[nH]c(=O)c23)cc1C(F)(F)F [Compound 151, 2-(4-(hydroxymethyl)piperidin-1-yl)-4-(4-methoxy-3-(trifluoromethyl)phenylamino)pyrido[4,3d]pyrimidin-5(6H)-one]
percentage inhibition of TNF-α release compared with R406 [1]: greater than those exhibited by R406

IC50 (truncated human FAK): 337 nM | IC50 (SYK): 2.7 nM | IC50 (PYK2): 84.3 nM
SMILES: COc1ccc(Nc2nc(N3CCC(O)(CO)CC3)nc3cc[nH]c(=O)c23)cc1C(F)(F)F [Compound 152, 2-(4-hydroxy-4-(hydroxymethyl)piperidin-1-yl)-4-(4-methoxy-3-(trifluoromethyl)phenylamino)pyrido[4,3-d]pyrimidin-5(6H)-one]
inhibition at 0.3 µM ([1]; Homo sapiens, IgG stimulation, At 0.3 μM, THP-1, read-out: Inhibition of TNF-α Release (percentage inhibition)): 80.5% | inhibition at 1 µM ([1]; Homo sapiens, IgG stimulation, At 1 μM, THP-1, read-out: Inhibition of TNF-α Release (percentage inhibition)): 82.9% | percentage inhibition of TNF-α release compared with R406 [1]: higher percentage inhibition

SMILES: COc1cc(Nc2ncc(F)c(Nc3ccc4c(n3)NC(=O)C(C)(C)O4)n2)cc(OC)c1OC [Compound R406, reference compound]
Inhibition of TNF-α Release (percentage inhibition) ([1]; IgG stimulation, At 0.3 μM, THP-1): 49.9% | Inhibition of TNF-α Release (percentage inhibition) ([1]; IgG stimulation, At 1 μM, THP-1): 87.4%
